# Source: patent US10577358B2, “Strigolactone formulations and uses thereof” (SOUND AGRICULTURE COMPANY, priority 2013, dated 2020)
# Assays:
# Tomato seedlings = assay: Salinity tolerance in tomato seedlings; format: in vivo; settings: 10 mg/mL; 250 mL water with 29.2 g/L NaCl 24 hours after treatment; 6 hours after salt irrigation
# Protocol: Tomato seedlings were treated with 10 mg/mL AB01 or mock treated. 24 hours after treatment, they were irrigated with 250 mL water containing 29.2 g/L salt (NaCl).
# [1] = tested on: corn, Dekalb hybrid 68-05; assay: Corn field trial, Hays County, Tex., not irrigated; format: in vivo
# Protocol: Field trial was performed from April to July 2014 in Hays County, Tex. Dekalb hybrid 68-05 was planted at a density of 25,000 plants per acre (30″ rows with 8″ spacing). The field was top-dressed with 80 lbs/ac nitrogen. The field was not irrigated. AB01 treated plots were sprayed with a 2 gram per acre dose at the tasseling (VT) stage. Spraying was accomplished by resuspending solid AB01 in 0.5 mL of acetone, and diluting in water for a spray volume of 1 gallon per 500 square feet. Experiments were performed in triplicate The fraction of fertilized ears was measured by visual inspection of the ear silk at the R2-R3 stage. Unfertilized silks that appear yellow/green, while fertilized silks appear reddish brown. Completely unfertilized ears have silks that are completely yellow/green, fertilized ears appear brown, while ears with an incomplete degree of fertilized silks have a mixed population of silks. […] Ears were visually inspected at harvest to monitor kernel set (the number of fully formed kernels in the mature ear). […] Ears volume was measured in the field at the R3 stage to calculate ear volume. The length and circumference of each ear was measure, and volume was calculated by treating the ear as a cylinder. Approximately 100 ears from each plot were measured. […] After harvest, ears were shelled and kernels counted and weighed to quantitate the ‘thousand kernel weight’ (TKW), or average mass of kernels in the trial. AB01 treated plots yielded kernels averaging 30% higher mass than control plots. Ears from control and treated plots were harvested, shelled, and moisture tested to quantitate dry mass. Control plots averaged 120 bushels per acre, while AB01 treated plots averaged 143 bushels per acre, a 19% increase. Grain yield is calculated at 15% moisture, a standard measure of harvest output.
# MAX1 A. thaliana mutants = assay: Complementation of Arabidopsis mutant deficient in strigolactone biosynthesis; format: in vivo, Arabidopsis thaliana; settings: 1 uM as an irrigation supplement vs mock treatment
# Protocol: To further validate the bioactivity of AB01 we tested whether the compound could complement mutants of the model plant Arabidopsis thaliana that are deficient in strigolactone biosynthesis. […] We grew MAX1 A. thaliana under standard conditions and added 1 uM AB01 as an irrigation supplement, or a mock treatment. […] Thus, the synthetic AB01 is sufficiently similar to strigolactone to both to trigger Striga germination as well as substitute for the natural compound in a model plant.
# [2] = tested on: Dekalb 67-86 RR corn seedlings; assay: Acute water stress in corn seedlings (leaf rolling score); format: in vivo; settings: 40 mL of 0.1 mM or 1.0 mM; 6th day without irrigation; greenhouse
# Protocol: Corn seedlings were scored as unstressed, moderately water stressed and severely water stressed as measured by visual inspection of leaf rolling, a response of corn to water stress. Dekalb 67-86 RR corn seeds were planted and then irrigated through 7 days after emergence in a greenhouse setting. Seedlings were then treated with 40 mL of water, 0.1 mM AB01 or 1.0 mM AB01 and irrigation ceased. On the 6th day without irrigation, seedlings were scored for water stress. Seedlings with open leaves were scored as unstressed; seedlings with partial leaf rolling were scored as moderately stressed; seedlings with completely rolled leaves were scored as severely stressed.
# Wheat = assay: Drought tolerance in greenhouse wheat; format: in vivo; settings: 1 mg in 100 mL water; irrigation stopped; 7 days post treatment
# Protocol: Wheat was grown in greenhouse conditions from seed for 6 weeks with adequate irrigation. Plants were treated with 1 mg of AB01 resuspended in acetone and diluted in 100 mL water, or mock treated as a control. Irrigation was stopped and plants monitored for symptoms of drought stress.
# Seeds of O. cumana = assay: Germination triggering of parasitic weed seeds; format: in vivo; settings: AB01 compared with 5-deoxystrigol; 48 hours post-treatment, triplicate
# Protocol: Seeds of O. cumana were primed by incubation on glass fiber filters in darkness at room temperature for 3 days. Specified concentrations of AB01 or 5-dS were applied and seeds were monitored at 48 hours post-treatment. Germination was evident by appearance of haustoria. Experiments were performed in triplicate.
# [3] = tested on: grain crop in Striga infested plots; assay: Field trial Siaya County, Kenya: grain yield; format: in vivo; settings: 1 gram per acre sprayed 1 week prior to planting
# Protocol: We have field trials underway outside of Kisumu, Kenya to test the efficacy of this treatment on maize yields in Striga infested fields.
# (§1) Field trial was performed from August 2013 to January 2014 in Siaya County, Kenya. AB01 treated plots were sprayed with a 1 gram per acre dose 1 week prior to planting. Treatment was accomplished by resuspending solid AB01 in 1 mL of acetone, and diluting in 4000 L of water. 3 replicate treated and untreated plots (100 m2 each) were performed. […] (C) The biomass of Striga from each plot was collected and measured after harvest.
# Striga = assay: Field trial Siaya County, Kenya: reduction of Striga; format: in vivo; settings: 1 gram per acre sprayed 1 week prior to planting
# Protocol: as §1
# Alfalfa seedlings [4] = assay: Drought tolerance in alfalfa seedlings; format: in vivo; settings: 1 mg/mL; irrigation stopped; approximately 7 days post-treatment
# Protocol: Alfalfa was grown from seeds for 14 days. Seedlings were treated with 1 mg/mL AB01 or mock treated. Irrigation was stopped after treatment and seedlings were monitored for symptoms of water limitation stress.
# Alfalfa seedlings [5] = assay: Salinity tolerance in alfalfa seedlings; format: in vivo; settings: 1 mg/mL; irrigated every 48 hours with 100 mL water containing 35 g/L NaCl; after 5 days
# Protocol: Alfalfa was grown from seeds for 14 days. Seedlings were treated with 1 mg/mL AB01 or mock treated. After treatment, plants were irrigated with 100 mL water containing 35 g/L dissolved salt (NaCl). Irrigation was performed every 48 hours and plants monitored for symptoms of salinity stress.
# Seeds of Striga asiatica = assay: Triggering Striga seed germination; format: in vivo; settings: for bioactivity in Striga germination assay: FIG. 1
# Protocol: (B) Bioactivity of synthetic SL. Seeds of Striga asiatica were exposed to SL (right) or a mock treatment (left). […] (C) Synthetic biological pathway for the production of SL in yeast, consisting of enzymes of plant and microbial origin. We tested the ability of AB01 to trigger the germination of Striga seeds. Seeds of Striga asiatica were conditioned by incubation in the dark at 30 degrees for 7 days, and dilutions of the AB01 material in water were applied. We observed that concentrations of 1 nanogram per liter and greater were able to trigger germination of approximately 30% of the seeds, which is similar to published efficiencies and activity for plant-derived strigolactone (FIG. 1A-B).
# Striga hermonthica seeds = settings: at 10^-8 M concentrations; cited from earlier work
smiles,measurement,setting,value
CC1=CC(O/C=C2\C(=O)O[C@]3(C)CCC4C(C)(C)CCC[C@]4(C)[C@@H]23)OC1=O (stereo partly shown) [AB01],symptoms of salinity shock (wilting),Tomato seedlings,appeared unstressed
same,increase of harvest yield over control plots,[1]; 2 gram per acre spray at VT,19%
same,ear volume,"[1]; 2 gram per acre spray at VT, R3 stage, approximately 100 ears per plot, vs mock treated",significantly higher volumes
same,kernel set at harvest,"[1]; 2 gram per acre spray at VT, vs mock treated",more complete kernel set and few signs of kernel abortion
same,fraction of fertilized ears (visual inspection of ear silk),"[1]; 2 gram per acre spray at tasseling (VT), R2-R3 stage, vs mock treated control",decreased the fraction of unfertilized ears while increasing the fraction of fertilized ears
same,effect on phenotype of strigolactone-deficient mutant,MAX1 A. thaliana mutants,visible impact on the phenotype of the mutant
same,fraction of unstressed / severely water stressed seedlings,[2],decreased the fraction of severely stressed seedlings while increasing the fraction of unstressed seedlings in a dose-dependent manner
same,symptoms of drought stress (wilting),Wheat,appeared vigorous
same,germination triggering efficiency (appearance of haustoria),Seeds of O. cumana,Significant differences in germination triggering efficiency
same,increase of grain yield compared to untreated plots,[3],25%
same,count of emergent Striga per plot,Striga,few parasites
same,Striga emergence and Striga-related stress during season,Striga; 3 replicate plots of 100 m2,few signs of Striga-related stress and parasite emergence
same,appearance of seedlings under water limitation,Alfalfa seedlings [4],appeared robust
same,vigor under salinity stress,Alfalfa seedlings [5],significantly higher vigor
same,bioactivity in Striga germination assay,Seeds of Striga asiatica,graded dose-response behavior
same,bioactivity in Striga germination assay,Seeds of Striga asiatica; listed as Synthetic SL,potent bioactivity
same,bioactivity in Striga germination assay,Seeds of Striga asiatica; listed as synthetic SL,displayed bioactivity
same,bioactivity in Striga germination assay,Seeds of Striga asiatica; listed as synthetically produced SL,effective at germinating seeds of Striga asiatica
same,concentrations able to trigger germination,"Seeds of Striga asiatica; Striga asiatica seeds conditioned 7 days, dilutions in water",≥ 1 nanogram per liter
same,seeds triggered to germinate,"Seeds of Striga asiatica; Striga asiatica seeds conditioned in the dark at 30 degrees for 7 days, dilutions in water, 1 nanogram per liter and greater",approximately 30%
"CC1=C[C@H](O/C=C2/C(=O)O[C@@H]3C4=C(CCCC4(C)C)C[C@H]23)OC1=O [Formula 5-dS, 5-deoxystrigol, reference compound]",germination triggering efficiency (appearance of haustoria),Seeds of O. cumana,Significant differences in germination triggering efficiency
CC1=CC(OC=C2C(=O)OC3C4=C(CC23)C(O)CCC4(C)C)OC1=O (stereo not drawn) [ent-strigol],activity in germination studies of Striga hermonthica seeds,Striga hermonthica seeds,22%
